# Columns and labels:
# [1] = target: Integrin alpha-IIb/beta-3 (Homo sapiens, UniProt P05106+P08514); assay: Inhibition of [125I]- Fg binding to fibrinogen receptor of activated human platelets
# Homo sapiens = species on record: Homo sapiens; assay: Evaluated for human platelet aggregation.; type: functional
# Sequence of Integrin alpha-IIb/beta-3 (P05106 27-788 limits assumed): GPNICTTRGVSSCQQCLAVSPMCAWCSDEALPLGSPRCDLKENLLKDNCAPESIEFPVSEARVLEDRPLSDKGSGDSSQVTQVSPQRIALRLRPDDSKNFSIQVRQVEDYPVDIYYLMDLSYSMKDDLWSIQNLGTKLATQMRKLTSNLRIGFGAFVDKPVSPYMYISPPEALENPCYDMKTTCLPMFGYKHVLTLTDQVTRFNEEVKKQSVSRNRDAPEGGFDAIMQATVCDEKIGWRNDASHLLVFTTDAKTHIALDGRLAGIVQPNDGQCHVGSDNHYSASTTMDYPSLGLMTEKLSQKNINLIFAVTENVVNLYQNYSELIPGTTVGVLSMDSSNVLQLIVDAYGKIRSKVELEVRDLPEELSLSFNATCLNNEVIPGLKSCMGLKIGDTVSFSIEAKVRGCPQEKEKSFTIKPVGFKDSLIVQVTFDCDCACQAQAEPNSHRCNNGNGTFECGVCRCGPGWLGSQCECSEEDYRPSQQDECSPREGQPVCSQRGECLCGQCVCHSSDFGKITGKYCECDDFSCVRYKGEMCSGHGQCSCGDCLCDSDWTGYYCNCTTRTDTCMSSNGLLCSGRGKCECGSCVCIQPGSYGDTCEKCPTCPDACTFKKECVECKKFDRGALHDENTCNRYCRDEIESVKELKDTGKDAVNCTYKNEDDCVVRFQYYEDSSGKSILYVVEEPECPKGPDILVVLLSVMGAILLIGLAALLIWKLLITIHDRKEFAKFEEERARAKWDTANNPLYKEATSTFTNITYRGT
# Sequence of Integrin alpha-IIb/beta-3 (P08514 32-887 limits assumed): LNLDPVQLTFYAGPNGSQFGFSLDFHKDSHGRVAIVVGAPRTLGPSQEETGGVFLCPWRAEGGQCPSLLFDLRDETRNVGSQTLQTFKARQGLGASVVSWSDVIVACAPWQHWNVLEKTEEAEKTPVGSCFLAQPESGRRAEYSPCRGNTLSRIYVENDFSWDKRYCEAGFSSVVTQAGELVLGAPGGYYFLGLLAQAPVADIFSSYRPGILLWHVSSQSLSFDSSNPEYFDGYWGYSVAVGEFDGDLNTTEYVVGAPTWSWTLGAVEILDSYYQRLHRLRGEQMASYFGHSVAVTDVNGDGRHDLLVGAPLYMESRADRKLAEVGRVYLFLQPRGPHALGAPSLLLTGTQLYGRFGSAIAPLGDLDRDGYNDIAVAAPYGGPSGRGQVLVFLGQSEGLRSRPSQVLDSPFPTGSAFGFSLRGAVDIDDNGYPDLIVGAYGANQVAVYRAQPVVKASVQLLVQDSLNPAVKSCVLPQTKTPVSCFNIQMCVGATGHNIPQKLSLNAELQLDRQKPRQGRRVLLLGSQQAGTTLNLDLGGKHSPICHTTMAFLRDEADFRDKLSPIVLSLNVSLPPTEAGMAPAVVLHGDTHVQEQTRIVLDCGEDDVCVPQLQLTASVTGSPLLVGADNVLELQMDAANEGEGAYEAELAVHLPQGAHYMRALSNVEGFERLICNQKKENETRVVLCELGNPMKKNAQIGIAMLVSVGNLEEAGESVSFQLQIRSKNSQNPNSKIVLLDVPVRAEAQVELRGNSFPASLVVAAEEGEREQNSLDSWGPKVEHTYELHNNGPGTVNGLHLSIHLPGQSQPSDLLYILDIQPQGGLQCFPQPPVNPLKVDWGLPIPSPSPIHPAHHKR
# Sequence of Integrin alpha-IIb/beta-3 (P08514 891-1039 limits assumed): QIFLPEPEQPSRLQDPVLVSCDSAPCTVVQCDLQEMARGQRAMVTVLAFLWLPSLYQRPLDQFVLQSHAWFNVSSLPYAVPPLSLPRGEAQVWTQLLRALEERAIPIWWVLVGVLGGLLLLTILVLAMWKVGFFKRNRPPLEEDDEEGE
IC50 [1] [nM],IC50 (Homo sapiens) [nM],SMILES
> 25000,–,O=C(O)CCC(=O)N1CCC(CCCC2CCNCC2)CC1
8400,–,CCCCCN[C@@H](CCC(=O)N1CCC(CCCC2CCNCC2)CC1)C(=O)O
950,–,CCCCS(=O)(=O)NC(CC(=O)O)CC(=O)N1CCC(CCCC2CCNCC2)CC1 (centres undefined)
20,20,O=C(O)[C@H](CCC(=O)N1CCC(CCCC2CCNCC2)CC1)NS(=O)(=O)Cc1ccccc1
> 25000,–,CCCCS(=O)(=O)N[C@H](CCC(=O)N1CCC(CCCC2CCNCC2)CC1)C(=O)O
40,10,O=C(O)[C@H](CCC(=O)N1CCC(CCCC2CCNCC2)CC1)NS(=O)(=O)c1cccc2ccccc12
3000,–,O=C(O)CCCC(=O)N1CCC(CCCC2CCNCC2)CC1
30,–,O=C(O)[C@H](CCC(=O)N1CCC(CCCC2CCNCC2)CC1)NS(=O)(=O)c1ccccc1
40,10,O=C(O)[C@H](CCC(=O)N1CCC(CCCC2CCNCC2)CC1)NS(=O)(=O)c1ccc2ccccc2c1
6700,–,O=C(O)CCCCC(=O)N1CCC(CCCC2CCNCC2)CC1
70,130,CCCCCCCCS(=O)(=O)N[C@@H](CCC(=O)N1CCC(CCCC2CCNCC2)CC1)C(=O)O
250,–,CCCCC(=O)N[C@@H](CCC(=O)N1CCC(CCCC2CCNCC2)CC1)C(=O)O
> 25000,–,CCCCS(=O)(=O)N[C@@H](CCC(=O)O)C(=O)N1CCC(CCCC2CCNCC2)CC1
130,–,CCCCS(=O)(=O)N[C@H](CCC(=O)O)C(=O)N1CCC(CCCC2CCNCC2)CC1
10,20,CCCc1ccc(S(=O)(=O)N[C@@H](CCC(=O)N2CCC(CCCC3CCNCC3)CC2)C(=O)O)cc1
30,30,O=C(O)[C@H](CCC(=O)N1CCC(CCCC2CCNCC2)CC1)NS(=O)(=O)c1ccc(-c2ccccc2)cc1
110,70,CCCCS(=O)(=O)N[C@@H](CCC(=O)N1CCC(CCCC2CCNCC2)CC1)C(=O)O
